Laboratory results published in PMC10964573, “OCTN2- and ATB^0,+-targeted nanoemulsions for improving ocular drug delivery” (Journal of Nanobiotechnology, 2024).
Entries after “also recorded” stand apart in the source; their conditions may differ.

Test: Solubility of DEX in oils (shake flask)
Assay type: physicochemical
Details: Labrafil M1944 CS versus medium-chain triglycerides, soybean oil, olive oil; 37 °C, 72 h
Method: The solubility of drug in oils is the basis for the selection of the oil phase. The solubility of DEX in various oils, including medium-chain triglycerides, soybean oil, olive oil, and Labrafil® M1944 CS was determined by the shake flask method. Briefly, an excessive amount of DEX was added to 1mL of oil in an Eppendorf tube and mixed in a water bath sonication. Then the tubes were placed in a water bath shaker at 37 ± 0.5 °C. After shaking for 72 h, the samples were centrifuged at 10,000 rpm for 10 min. The supernatant was extracted with ethanol solution by sonicating for 20 min and centrifuging at 10,000 rpm for 10 min. The DEX concentration in the supernatant was determined by high-performance liquid chromatography. […] Next, the effect of the amount of Labrafil® M1944 CS content on the physicochemical properties of the DEX NEs was screened (Table S1). When the amount of Labrifil® M 1944 CS was 50 mg, DEX NEs had higher drug content (0.64±0.003mg/mL) and EE (91.3±2.8%), and this formulation was selected to further prepare DEX SC-NEs.

With C[C@@H]1C[C@H]2[C@@H]3CCC4=CC(=O)C=C[C@]4(C)[C@@]3(F)[C@@H](O)C[C@]2(C)[C@@]1(O)C(=O)CO [DEX, Dexamethasone] the solubility in oil was “high solubility; also recorded: highest”.
